Measurements reported in PMC3056768, “Conjugation to the Cell-Penetrating Peptide TAT Potentiates the Photodynamic Effect of Carboxytetramethylrhodamine” (PLoS ONE, 2011).
“Also recorded” adds a separate entry of the source.

Experiments:
red blood cells (RBCs) = tested on: red blood cells (RBCs)
Protocol: Whole blood was purchased from Gulf Coast Regional Blood Center (Houston, TX). Erythrocytes were centrifuged for 5 min at 1500 g and the erythrocyte pellet was resuspended with PBS. This was repeated three times to remove plasma and buffy coat. The erythrocytes (50% volume in PBS) were diluted in PBS to a final concentration of 0.25%. Indicated concentration of peptide was added to the medium and the samples were added to the wells of an 8-well chamber glass slide (Nunc). Cells were typically allowed to settle to the bottom of the dish for 5 minutes prior to imaging so as to obtain a layer of cells in the focal plane.
Cells were placed on an inverted epifluorescence microscope (Model IX81, Olympus, Center Valley, PA) equipped with a heating stage maintained at 37°C. The microscope is configured with a spinning disk unit to perform both confocal and wide-field fluorescence microscopy. Images were collected using a Rolera-MGI Plus back-illuminated EMCCD camera (Qimaging, Surrey, BC, Canada). Images were acquired using bright field imaging and two standard fluorescence filter sets: Texas Red (Ex = 560±20 nm/Em = 630±35 nm), and CFP (Ex = 436±10 nm/Em = 480±20 nm). The excitation light was from a 100 W halogen lamp (Olympus USH 1030C) passed through the filter cubes and 40 or 100× objective lenses. Neutral density filters (ND 1, 2, 3, or 4 on the instrument, corresponding to 100, 25, 12.5, or 5% transmittance) and different exposure times were used to modulate the amount of light samples were exposed to. The bright field and fluorescence intensities of cells and ghosts were measured using the SlideBook 4.2 software (Olympus, Center Valley, PA). To determine the percentage of cells stained by SYTOX® Blue, cells were imaged with a 20× objective by phase contrast. Ten to twenty images were acquired for each experiment. The total number of cells in a given image was determined from the phase contrast image while the number of dead cells was determined by identifying cells containing a blue fluorescent nucleus stained by SYTOX® Blue. Cell viability was determined by establishing a ratio of dead cells/total number of cells for each sample (at least 1000 cells were counted in each experiments and each experiments were repeated 3 times).
TMR and TMR containing peptides were used at 2 µM. All experiments were performed by irradiating the samples at 560 nm for 400 msec (∼8 J/cm^2). The data in the histogram represents the average of 4 experiments and the error bars correspond to the standard deviation.

COLO 316 cells = experiment: Photocytotoxicity of endocytosed peptide; type: cell-based, human; settings: COLO 316, 3 µM for 1 h, washed, 560 nm
Protocol: (§1) HeLa (human cervical adenocarcinoma), COS-7 (SV40 transformed African green monkey kidney fibroblast-like cell line) were obtained from ATCC. COLO 316 (human ovarian carcinoma) were obtained from Robert Burghardt (Department of Veterinary Integrative Biosciences, Texas A&M University). Cells were cultured in DMEM supplemented with 10% fetal bovine serum (FBS) and maintained at 37°C in a humidified environment with 5% CO2. Cells were plated in 8-well dishes so that the cells were 70% confluent after 24 h, washed 3 times with L-15 media, incubated with 3 to 10 µM peptides at 37°C for 1 h, washed 3 times with L-15, and imaged. Alternatively, cells were incubated in L-15 at 4°C to inhibit the endocytic uptake of peptides. In this case, cells were imaged with the peptide still present in solution and the low temperature was maintained for the entire duration of imaging. For photosensitization, cells were exposed to light (λex = 560±20 nm) for the indicated time points. Plasma membrane disruption was detected by addition of the cell-impermeable DNA stain SYTOX Blue (5 µM) during or after photosensitization.
Figure 2 The photolytic and photocytotoxic effects of TMR-TAT occur rapidly and in all irradiated cells. […] The cells were washed with fresh media and endocytosis of TMR-TAT was confirmed by fluorescence microscopy. […]

HeLa cells = experiment: Photocytotoxicity of endocytosed peptide after light irradiation (SYTOX Blue staining, membrane blebbing); type: cell-based
Protocol: as §1
Ten to twenty images were acquired for each experiment.
Irradiances at the specimen were 100 mW/cm^2 when no neutral density filter and no objective were present in the light path (and, for instance 5 mW/cm^2 when ND4 was inserted). Irradiances were measured using a monochromic photometer (model 840-c, Newport, Irvine, CA). Irradiation area has a diameter of 1.3 cm without objective but the light beam is focused into an area of 3×10^−3 cm^2 by the 100× objective. Irradiances can therefore be approximated to be at […] with ND4 or ND1, respectively. Irradiances provided in the figure legends are based on these calculations. To confirm that the irradiances measured on the microscope were accurate, experiments were also reproduced, when possible, using light illumination with a collimated light source from Oriel (Stratford, CT) equipped with a 500 W Hg lamp. Selective irradiation at 560 nm was performed using an analytical line filter (Oriel, 9.4 nm bandwidth). In this case, irradiances of the light beam (diameter of 2.5 cm) could be measured more precisely using the monochromic photometer.

CN(C)c1ccc2c(c1)Oc1cc(N(C)C)ccc1C21OC(=O)c2cc(C(=O)NCC(=O)N[C@@H](CCCNC(=N)N)C(=O)N[C@@H](CCCCN)C(=O)N[C@@H](CCCCN)C(=O)N[C@@H](CCCNC(=N)N)C(=O)N[C@@H](CCCNC(=N)N)C(=O)N[C@@H](CCC(N)=O)C(=O)N[C@@H](CCCNC(=N)N)C(=O)N[C@@H](CCCNC(=N)N)C(=O)N[C@@H](CCCNC(=N)N)C(=O)NCC(N)=O)ccc21 [TMR-TAT]
lysis of RBCs when light exposure is increased (red blood cells (RBCs); 3 µM, 560 nm): more than 90% | lysis of RBCs in the absence of irradiation (red blood cells (RBCs); RBCs 0.25% in PBS, 1 to 5 µM, no 560 nm light): No lysis | photohemolysis (lytic effect on RBCs upon light exposure) (red blood cells (RBCs); RBCs 0.25% in PBS, irradiation at 560 nm): started lysing immediately upon excitation with light | photohemolysis after removal of oxygen (red blood cells (RBCs); incubation media degassed with nitrogen): greatly reduced | photo-induced activities (morphological changes, SYTOX Blue staining) (COLO 316 cells): only observable in the irradiated area; also recorded: could be reproduced | cell destruction, percentage of irradiated cells (SYTOX Blue staining) (HeLa cells; endocytosed peptide, 2 sec irradiation at 560 nm, radiant exposure approx. 40 J/cm^2, at least 3000 cells, reproduced at least 3 times): more than 95% | photocytotoxicity / cell death after irradiation at 560 nm (HeLa cells; incubation 1 h 37°C (3 µM; TMR-K9 10 µM), washed, irradiated at 560±20 nm): rapid necrosis; also recorded: plasma membrane damage and cell death
